The values below come from paper PMC9042801 (RSC Advances, 2021).

A short description of data set [1]: in vitro. The conditions noted are these: dog.
The test system of data set [2] is influenza virus A/Puerto Rico/8/34 (H1N1). The note with it: for SI (CC50/IC50): influenza virus A/Puerto Rico/8/34 (H1N1), MDCK cells.
Data set [3] has as its system bovine diarrhea virus (BDV) (strain VC-1). In words: Antiviral activity against BDV on CCV cells. It is filed as cell-based.
The test system of data set [4] is vaccine virus (VV, strain Copenhagen). In words: organism not typed. Format: cell-based.
Data set [5] concerns herpes simplex virus type 1 (HSV-1, strain VR-3). In words: Antiviral activity against HSV-1 on Vero cells. It is filed as cell-based. The conditions noted are these: HSV-1, Vero cells, moi 0.01, 3 days.
Data set [6] relates to MDCK cell line. The note with it: MTT, 72 h.
The mark [7] stands for this setting: CC50, MDCK cell line, MTT, 72 h.

In general, IC50 refers to the midpoint of a concentration-inhibition curve. In turn, `CSc1ccc(-c2c(C(F)(F)F)n(C)n(-c3ccccc3)c2=O)cc1` [Compound 3g] showed a CC50 in data set [1] (setting [7]) of 263 ± 19 µM. In addition, the IC50 in data set [2] is over 91 µM.
With `Cn1c(C(F)(F)F)c(I)c(=O)n1-c1ccccc1` [Compound 5a, 4-iodo-5-trifluoromethyl-antipyrine], the IC50 is 46.9 ± 2 µM in data set [3] (72 h); 103 ± 10 µM in data set [4] (Vero, 72 h); “Inactive” in data set [5]. In addition, the “SIVDC (selectivity index)” value in data set [3] (BDV, CCV cells) is given as 6.4. Moreover, the “activity against bovine diarrhea virus (strain VC-1), in words” value in data set [3] (CCV cells) is recorded as “weak activity”. The same molecule had a CC50 in data set [1] (setting [7]) of over 815 µM. In addition, in data set [4] (VV, Vero cells), the “SIBOB (selectivity index)” value is recorded as 2.9. Moreover, in data set [4] (Vero cells), the “activity against the vaccine virus (strain Copenhagen), in words” value was “weak activity”.
In data set [1] (setting [7]), `Cn1c(C(F)(F)C(F)(F)F)c(I)c(=O)n1-c1ccccc1` [Compound 5b] displayed a CC50 of 378 ± 26 µM.
As to `Cn1c(C(F)(F)F)c(C#Cc2ccccc2)c(=O)n1-c1ccccc1` [Compound 6a, 1-methyl-2-phenyl-4-(phenylethynyl)-5-(trifluoromethyl)-1,2-dihydro-3H-pyrazol-3-one], the CC50 is over 815 µM in data set [1] (setting [7]) and over 877 µM in data set [6]. The “SI (CC50/IC50)” value in data set [2] was determined as 15.
In data set [1], `NC(=O)c1ncn([C@@H]2O[C@H](CO)[C@@H](O)[C@H]2O)n1` [Ribavirin, reference compound] registered a CC50 of over 2130 µM. Also, the “SI (CC50/IC50)” value in data set [2] was determined as 59.
